For 20 compounds, IC50 results are on record in patent publication US20250066341A1 (CHIESI FARMACEUTICI S.P.A., priority 2021, published 2025).

A word on the IC50: it is the point on the concentration scale where inhibition reaches its midpoint.

Some results are limits rather than exact numbers.

For this test, the target named is T1, human recombinant LPA1 expressed in CHO cells (Homo sapiens, UniProt Q92633).
T1 construct: expressed in transfected cells; host or cells: CHO cells (CHO-hLPA1 cell line)
T1 sequence (Q92633 whole entry): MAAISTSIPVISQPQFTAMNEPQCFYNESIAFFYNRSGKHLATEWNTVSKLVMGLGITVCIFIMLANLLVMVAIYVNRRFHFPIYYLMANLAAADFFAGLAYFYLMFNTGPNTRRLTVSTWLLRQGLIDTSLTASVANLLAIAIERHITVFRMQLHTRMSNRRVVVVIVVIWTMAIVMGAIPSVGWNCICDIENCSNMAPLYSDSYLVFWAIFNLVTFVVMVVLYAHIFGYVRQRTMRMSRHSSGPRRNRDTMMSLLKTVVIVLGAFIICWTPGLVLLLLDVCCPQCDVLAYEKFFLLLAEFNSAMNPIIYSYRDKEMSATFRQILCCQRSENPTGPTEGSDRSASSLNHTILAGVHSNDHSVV
In words: FLIPR calcium mobilization assay, LPA1 antagonism in CHO-hLPA1 cells. The class given is cell-based. The note with it: inhibition of LPA EC80 Ca2+ response, 30 min pre-incubation, expressed as range of activity. The protocol: The effectiveness of compounds of the present invention as LPA1 antagonist can be determined at the human recombinant LPA1 expressed in CHO cells, using a FLIPR assay in 384 well format.
CHO-hLPA1 cell lines are cultured in a humidified incubator at 5% C02 in DMEM/F-12 (1:1) MIXTURE with 2 mM Glutamax, supplemented with 10% of Foetal Bovine Serum, 1 mM Sodium Pyruvate, 11 mM Hepes and 1× Penicillin/Streptomycin. […] Serial dilutions (1:3 or 1:4, 11 points CRC) of compounds are performed in 100% DMSO at 200× the final concentration. […] The final concentration of DMSO in the assay will be 0.5% in each well. Medium is removed by aspiration and cells are then incubated with 30 μl of a loading solution containing 5 μM of the cytoplasmic Ca2+ indicator Cal-520 AM in Assay Buffer containing 2.5 mM probenecid for 30 min at 37° C. incubator (cell loading). The loaded cell plates are transferred into the FLIPR instrument and calcium responses are monitored during the on-line addition protocols. For testing of compounds, after the cell loading, 10 μl/well of 4× antagonists' solution was added onto the cells. After 30 min pre-incubation (at 37° C.), 10 μl/well of 5× concentrated LPA EC80 was added and Ca2+ mobilization responses was followed during the on-line addition protocol. Intracellular peak fluorescence values subtracted by baseline fluorescence are exported and analysed to determine IC50 values, respectively. The calcium response is expressed as percentage of the maximal inhibition of the EC80 agonist response.
The raw data (peak height expressed as relative fluorescence units) are normalized and transformed into “percent of inhibition”. Curve fitting and pIC50 (−LogIC50) estimations are carried out using a four-parameter logistic model using XLfit Software.
As for `Cc1noc(-c2ccc(OC[C@H]3CCCC[C@@H]3C(=O)O)cn2)c1Nc1cncc(OCC(C)C)n1` [Compound 50, (1S,2S)-2-(((6-(4-((6-isobutoxypyrazin-2-yl)amino)-3-methylisoxazol-5-yl)pyridin-3-yl)oxy)methyl)cyclohexane-1-carboxylic acid], the IC50 is less than 50 nM.

Consider `Cc1nc(-c2onc(C)c2Nc2cncc(OC3CC(F)(F)C3)n2)ccc1NC(=O)[C@H]1CCCC[C@@H]1C(=O)O` [Compound 3, (1S,2S)-2-((6-(4-((6-(3,3-difluorocyclobutoxy)pyrazin-2-yl)amino)-3-methylisoxazol-5-yl)-2-methylpyridin-3-yl)carbamoyl)cyclohexane-1-carboxylic acid], for which the half-inhibitory concentration (IC50) fell in the range of 50 to 250 nM.

For `Cc1nc(-c2onc(C)c2Nc2cncc(C(F)(F)F)n2)ccc1NC(=O)[C@H]1CCCC[C@@H]1C(=O)O` [Compound 4, (1S,2S)-2-((2-methyl-6-(3-methyl-4-((6-(trifluoromethyl)pyrazin-2-yl)amino)isoxazol-5-yl)pyridin-3-yl)carbamoyl)cyclohexane-1-carboxylic acid], the concentration for half-maximal inhibition (IC50) lay in the range of 50 to 250 nM.

Take `Cc1nc(-c2onc(C)c2NS(=O)(=O)CCc2ccccc2Cl)ccc1NC(=O)[C@H]1CCCC[C@@H]1C(=O)O` [Compound 22, (1S,2S)-2-((6-(4-((2-(2-chlorophenyl)ethyl)sulfonamido)-3-methylisoxazol-5-yl)-2-methylpyridin-3-yl)carbamoyl)cyclohexane-1-carboxylic acid]: the IC50 is less than 50 nM.

For `CC(C)Oc1cncc(Nc2c(-c3ccc(NC(=O)[C@H]4CCCC[C@@H]4C(=O)O)cc3)cnn2C)n1` [Compound 20, (1S,2S)-2-((4-(5-((6-isopropoxypyrazin-2-yl)amino)-1-methyl-1H-pyrazol-4-yl)phenyl)carbamoyl)cyclohexane-1-carboxylic acid], the 50% inhibitory concentration (IC50) was 50 to 250 nM.

In the case of `CCCCNc1cncc(Nc2c(C)noc2-c2ccc(NC(=O)[C@H]3CCCC[C@@H]3C(=O)O)c(C)n2)n1` [Compound 5, (1S,2S)-2-((6-(4-((6-(butylamino)pyrazin-2-yl)amino)-3-methylisoxazol-5-yl)-2-methylpyridin-3-yl)carbamoyl)cyclohexane-1-carboxylic acid], the IC50 lay in the range of 250 to 600 nM.

For `Cc1nc(-c2cnn(C)c2NC(=O)O[C@H](C)c2ccccc2Cl)ccc1OC[C@H]1CCCC[C@@H]1C(=O)O` [Compound 58, (1S,2S)-2-(((6-(5-((((R)-1-(2-chlorophenyl)ethoxy)carbonyl)amino)-1-methyl-1H-pyrazol-4-yl)-2-methylpyridin-3-yl)oxy)methyl)cyclohexane-1-carboxylic acid], the IC50 is less than 50 nM.

Turning to `Cc1nc(-c2onc(C)c2NS(=O)(=O)CC(C)c2ccccc2)ccc1NC(=O)[C@H]1CCCC[C@@H]1C(=O)O` (single isomer, unassigned) [Compound 30], the IC50 was less than 50 nM.

On to `Cc1nc(-c2nnn(C)c2NC(=O)O[C@H](C)c2ccccc2Cl)ccc1OC[C@H]1CCCC[C@@H]1C(=O)O` [Compound 69], for which the IC50 is less than 50 nM.

With `Cc1nc(-c2onc(C)c2Nc2cncc(-c3ccccn3)n2)ccc1NC(=O)[C@H]1CCCC[C@@H]1C(=O)O` [Compound 14, (1S,2S)-2-((2-methyl-6-(3-methyl-4-((6-(pyridin-2-yl)pyrazin-2-yl)amino)isoxazol-5-yl)pyridin-3-yl)carbamoyl)cyclohexane-1-carboxylic acid], the IC50 lay within 50 to 250 nM.

Regarding `Cc1nc(-c2onc(C)c2Nc2cncc(CC(C)C)n2)ccc1NC(=O)[C@H]1CCCC[C@@H]1C(=O)O` [Compound 12, (1S,2S)-2-((6-(4-((6-isobutylpyrazin-2-yl)amino)-3-methylisoxazol-5-yl)-2-methylpyridin-3-yl)carbamoyl)cyclohexane-1-carboxylic acid], the IC50 fell in the range of 50 to 250 nM.

In the case of `Cc1nc(-c2onc(C)c2Nc2cncc(C3=CCCCC3)n2)ccc1NC(=O)[C@H]1CCCC[C@@H]1C(=O)O` [Compound 10, (1S,2S)-2-((6-(4-((6-(cyclohex-1-en-1-yl)pyrazin-2-yl)amino)-3-methylisoxazol-5-yl)-2-methylpyridin-3-yl)carbamoyl)cyclohexane-1-carboxylic acid], the half-maximal inhibitory concentration (IC50) is less than 50 nM.

As to `Cc1nc(-c2cnn(C)c2CNc2nccc(OC(C)C)n2)ccc1NC(=O)[C@H]1CCCC[C@@H]1C(=O)O` [Compound 17, (1S,2S)-2-((6-(5-(((4-isopropoxypyrimidin-2-yl)amino)methyl)-1-methyl-1H-pyrazol-4-yl)-2-methylpyridin-3-yl)carbamoyl)cyclohexane-1-carboxylic acid], the IC50 was in the range of 50 to 250 nM.

Regarding `CCCc1cncc(Nc2c(C)noc2-c2ccc(OC[C@H]3CCCC[C@@H]3C(=O)O)c(C)n2)n1` [Compound 54, (1S,2S)-2-(((2-methyl-6-(3-methyl-4-((6-propylpyrazin-2-yl)amino)isoxazol-5-yl)pyridin-3-yl)oxy)methyl)cyclohexane-1-carboxylic acid], the IC50 is less than 50 nM.

Regarding `Cc1nc(-c2onc(C)c2Nc2cncc(C(C)C)n2)ccc1NC(=O)[C@H]1CCCC[C@@H]1C(=O)O` [Compound 13, (1S,2S)-2-((6-(4-((6-isopropylpyrazin-2-yl)amino)-3-methylisoxazol-5-yl)-2-methylpyridin-3-yl)carbamoyl)cyclohexane-1-carboxylic acid], the IC50 fell in the range of 50 to 250 nM.

With `Cc1nc(-c2onc(C)c2COC(=O)N(C)C2CCCC2)ccc1NC(=O)[C@H]1CCCC[C@@H]1C(=O)O` [Compound 45, (1S,2S)-2-((6-(4-(((cyclopentyl(methyl)carbamoyl)oxy)methyl)-3-methylisoxazol-5-yl)-2-methylpyridin-3-yl)carbamoyl)cyclohexane-1-carboxylic acid], the IC50 was in the range of 50 to 250 nM.

With `Cc1nc(-c2onc(C)c2Nc2cncc(-c3cccnc3)n2)ccc1NC(=O)[C@H]1CCCC[C@@H]1C(=O)O` [Compound 7, (1S,2S)-2-((2-methyl-6-(3-methyl-4-((6-(pyridin-3-yl)pyrazin-2-yl)amino)isoxazol-5-yl)pyridin-3-yl)carbamoyl)cyclohexane-1-carboxylic acid], the IC50 lay within 50 to 250 nM.

As for `Cc1nc(-c2nnn(C)c2CNC(=O)OCc2cccnc2Cl)ccc1OC[C@H]1CCCC[C@@H]1C(=O)O` [Compound 64, (1S,2S)-2-(((6-(5-(((((2-chloropyridin-3-yl)methoxy)carbonyl)amino)methyl)-1-methyl-1H-1,2,3-triazol-4-yl)-2-methylpyridin-3-yl)oxy)methyl)cyclohexane-1-carboxylic acid], the IC50 lay within 50 to 250 nM.

Consider `Cc1nc(-c2nnn(C)c2CNC(=O)OCc2ccccc2)ccc1OC[C@H]1CCCC[C@@H]1C(=O)O` [Compound 62, (1S,2S)-2-(((6-(5-((((benzyloxy)carbonyl)amino)methyl)-1-methyl-1H-1,2,3-triazol-4-yl)-2-methylpyridin-3-yl)oxy)methyl)cyclohexane-1-carboxylic acid], for which the IC50 was less than 50 nM.

In the case of `CCOc1cncc(Nc2c(-c3ccc(OC[C@H]4CCCC[C@@H]4C(=O)O)c(C)n3)nnn2C)n1` [Compound 72, (1S,2S)-2-(((6-(5-((6-ethoxypyrazin-2-yl)amino)-1-methyl-1H-1,2,3-triazol-4-y1)-2-methylpyridin-3-yl)oxy)methyl)cyclohexane-1-carboxylic acid], the concentration for half-maximal inhibition (IC50) fell in the range of 50 to 250 nM.
